Key:
[1] = Comparative equilibrium solubility of salts of compound 1; conditions: pH listed with the equilibrium solubility
[2] = in vivo; cited from earlier work
5HT reuptake = conditions: therapeutic models, WO 01/14330; cited from earlier work
D2 receptors = D2 receptors (Homo sapiens, UniProt P14416); conditions: therapeutic models, WO 01/14330; cited from earlier work
rodents = conditions: cited from earlier work

Chain of D2 receptors (P14416 whole entry): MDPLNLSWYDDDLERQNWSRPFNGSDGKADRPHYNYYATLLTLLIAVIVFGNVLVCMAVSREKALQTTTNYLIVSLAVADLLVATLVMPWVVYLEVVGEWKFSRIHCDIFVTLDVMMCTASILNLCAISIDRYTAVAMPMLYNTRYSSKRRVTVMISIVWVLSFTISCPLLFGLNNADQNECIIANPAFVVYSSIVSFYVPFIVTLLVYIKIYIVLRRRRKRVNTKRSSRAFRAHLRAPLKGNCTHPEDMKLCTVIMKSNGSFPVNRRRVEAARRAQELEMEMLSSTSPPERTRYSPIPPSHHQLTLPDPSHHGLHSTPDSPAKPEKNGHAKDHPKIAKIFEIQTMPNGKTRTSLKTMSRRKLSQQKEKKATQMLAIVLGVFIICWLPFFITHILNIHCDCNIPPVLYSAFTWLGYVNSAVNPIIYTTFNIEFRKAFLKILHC

Structure (SMILES)	pH ([1]; listed as freebase (1))	activity in therapeutic models sensitive to clinically relevant antipsychotics, antidepressants, anxiolytics, and Parkinson's disease [2]	inhibitory activity against 5HT reuptake (5HT reuptake)	antagonistic activity at D2 receptors (D2 receptors)	propensity to induce catalepsy (rodents)	pH ([1]; listed as glucuronate (2))
CC1Oc2c(cccc2N2CCN(CCCc3c[nH]c4ccc(F)cc34)CC2)NC1=O (stereo not drawn) [compound 1, 8-{4-[3-(5-fluoro-1H-indol-3-yl)-propyl]-piperazin-1-yl}-2-methyl-4H-benzo[1,4]oxazin-3-one]	4.72	active	inhibitory activity against 5HT reuptake	antagonistic activity at D2 receptors	low propensity to induce catalepsy	–
CC1Oc2c(cccc2N2CCN(CCCc3c[nH]c4ccc(F)cc34)CC2)NC1=O (stereo not drawn) [compound 2]	–	–	–	–	–	4.25

From US7709024B2, “Sustained-release formulation and uses thereof” (Solvay Pharmaceuticals B.V., priority 2005, dated 2010)
